Patent US20050192262A1, “Treatment of tumours” (priority 2001, published 2005)

Key:
[1] = system: DU-145; test: Trypan blue exclusion trial, number of viable and dead cells; assay type: cell-based, human; conditions: 96 hours; for DU-145 mean % viable / DU-145 mean Dead cells / DU-145 mean Tot. cells / DU-145 mean Viable cells: 100 nM; for DU-145 mean Dead cells / DU-145 mean Tot. cells / DU-145 mean Viable cells: mean (range)
Method: (§1) Human prostatic cancer cell lines, PC-3 and DU-145, were used. Frozen cell lines were established in culture. DU-145, which was received as a tumour piece, was first disintegrated in a sterile Petri dish, using a pair of scissors. The disintegrated tumour was transferred to a […] cell-culture flask containing medium. For medium, Ham's F 10 was used for PC-3 and RPMI 1640 for DU-145.
(§2) FBS 10%, 0.2% NaHCO3 (7.5%), 2 mM L-glutamine (200 mM) and 0.005 mg/ml gentamycin (5 mg/ml) were added to culturing media for both cell lines.
(§3) Cells were grown in […] cell culture flasks until nearly confluent and culture medium was changed twice weekly. A solution of 17α-AED, 17-β-AED as well as a mixture of both in equal parts of DMSO and ethanol diluted in culture medium, not allowing the concentration of DMSO in culture-flasks to exceed 0.15%, was added respectively.
(§4) The concentration of AED in each culture flask was 100 nM. Controls were exposed to the same concentration of DMSO and ethanol in culture medium.
(§5) Exposure was maintained for 96 hours and cells in culture flasks were then treated with 5 ml of trypsin (0.25%) for PC-3 and trypsin and 3 ml of Versene (0.2 mM) for DU-145. Cells were then mechanically loosened, using a glass spatula. 100 μL aliquots were removed for Trypan blue exclusion trial. 200 μL aliquots were removed for cytospin preparations. The remaining 700 μL samples were then centrifuged for 5 minutes at 510×g at 4° C. Supernatant was removed and cells were resuspended in medium in 1 ml of insect cell lysis buffer (Pharmingen # 21425A) and incubated for 30 minutes on ice. The cell lysates were then stored at −70° C. until analysis.
(§6) Trypan Blue Exclusion Trial 100 μL aliquots of the initial cell suspension in PBS were used to determine the viability of cells collected by means of the trypan blue exclusion assay. 10 μL of the cell suspensions were mixed with 10 μL trypan blue solution (Sigma Chemical Co. # T8154) and left to sit for 3 minutes. The numbers of viable and dead cells were counted in a hemocytometer.

[2] = system: PC-3; test: as above; assay type: cell-based, human; conditions: 96 hours; for PC-3 mean % viable / PC-3 mean Dead cells / PC-3 mean Tot. cells / PC-3 mean Viable cells: 100 nM; for PC-3 mean Dead cells / PC-3 mean Tot. cells / PC-3 mean Viable cells: mean (range); for increase in total number of cells compared to controls / proportion of viable cells: PC-3, 100 nM
Method: as §1, §2, §3, §4, §5, §6

[3] = system: PPARγ; conditions: Animals I; controls set to 100; mean (range); α-AED 10 mg 96 hours, β-AED 80 mg 456 hours, α+β sequential
Method: Thawed rat tumours from both experiments above were homogenized in ice cold lysis-buffer. (160 mM NaCl, 10 mM HEPES, 2 mM CaCl2, 5% SDS, 0.5% Triton X-100, 100 μg/ml phenyl-metylsulfonyl fluoride, 1 μg/ml leupeptin and 2 μg/ml aprotinin), placed on ice for 15 minutes and following clarification centrifuged for 10 minutes at 13,000 g. Protein content of homogenates were determined by Lowry assay.
Protein in lysates (90 μg) were separated by electrophoresis using 8% SDS-PAGE and separated proteins were transferred onto a nitrocellulose membrane (Amersham) in trans-blot electrophoretic transfer cell (Bio-Rad Laboratories).
After washing in TTBS the blots were reincubated with horseradish peroxidase conjugated secondary antibody (anti-goat antibodies 2020, Santa Cruz) diluted 1:4000 in TTBS containing 3% (w/v) non-fat, dried milk for one hour. Blots were developed using an enhanced chemiluminescence system (ECL, Amersham) and exposed to Hyperfilm ECL (Amersham). Optical density was measured densitometrically.
All experiments were repeated twice in separate assays.

[4] = system: cyclin D1; test: Western blotting of Dunning AT-1 rat prostate tumours; assay type: in vivo; conditions: Animals II; exposure 80 hours in all arms
Method: (§7) The animal experiment described above was repeated.
(§8) Group 1 received a single dose of 10 mg 17α-AED sc. near tumour.
(§9) Group 2 received a single dose of 80 mg 17β-AED in the same way.
(§10) Group 3 received a single dose of 25 mg 17α OH-pregnenolone in the same way.
(§11) Group 4 received a single dose of 7.5 mg 5-androstene-3β,7β,17α-triol.
Protein content of homogenates were determined by Lowry assay.

[5] = system: VEGF; test: Immunostaining of tumour sections against VEGF; assay type: in vivo, rat
Method: Working dilution 1:100. As negative control antibody a mouse IgG, clone DAK-GO1, kappa, ×931, Dako, was used with a working dilution of 1:50.
as §7, §8, §9, §10, §11

[6] = system: Dunning R 3327, AT-1, rat prostatic tumour; test: Tumour growth after s.c. injection near tumour; assay type: in vivo; conditions: for tumour volumes: Animals II, single s.c. injection in the proximity of the tumour
Method: as §7, §8, §9, §10, §11
A fifth group served as tumour bearing controls.

[7] = system: Dunning AT-1 rat prostatic tumour; conditions: sections of treated rat prostatic tumour
Excerpt: Tumours were investigated for Increased apoptosis with the Apop-Tag In situ apoptosis detection kit (Oncor, Gaithersburg, Md.).

[8] = system: 3T3-L1 fibroblasts; conditions: 200 nM
Method: 3T3L1 fibroblasts from ATCC (embryonic muscle cell-line) batch F-12732 (batch-date 930301) were grown in 500 ml of DMEM, 50 ml of fetal bovine serum (FBS) and 11 ml of PEST. Medium was changed every second day. Cells were passaged when they were 80% confluent.
For differentiating purpose fibroblasts were Incubated in DMEM+10% FCS+5 kg/ml of insulin. 0.1 mM of IBMX and 0.25 μM of dexametason was added. After 2 days cells were transferred to DMEM+10% FCS+5 μg/ml Insulin. Medium was then changed every second day and consisted of DMEM+10% FCS. […] This served as positive control for differentiation.
Fibroblasts were also incubated with the same solutions except that IBMX and dexamethasone were exchanged with solutions of 17α-AED in ethanol and water, making the concentration of 17α-AED 100 or 200 nM in the cultures. Cultures were kept in incubator until confluent.

[9] = system: Dunning AT-1 rat prostate cancer
[10] = system: Dunning AT-1, rat prostatic tumour; test: Tumour morphology; conditions: Animals I
Method: Group 4 served as untreated, tumour-bearing controls. In all treatments equal amounts of PEG 400 (Sigma Chemicals) and ethanol, 0.5 ml was used as vehicle and injected s.c. adjacent to the tumour site.
In group 2 the experiment was terminated after 96 hours and for the remaining groups after 19 days through asphyxiation of rats with carbon dioxide.

Row | SMILES | DU-145 mean % viable [1] [%] | DU-145 mean Dead cells [1] | DU-145 mean Tot. cells [1] | DU-145 mean Viable cells [1] | PC-3 mean % viable [2] [%] | PC-3 mean Dead cells [2] | PC-3 mean Tot. cells [2] | PC-3 mean Viable cells [2] | increase in total number of cells compared to controls [2] [%] | proportion of viable cells [2] | PPARγ expression, optical density [3] | expression of cyclin D1 [4] | tumour volumes [6] [%] | other results
1 | C[C@]12CC[C@H]3[C@@H](CC=C4C[C@@H](O)CC[C@@]43C)[C@@H]1CC[C@H]2O [Compound 17α-AED, androstene-3β,17α-diol] | 78.1 | 29(21-37) | 131(122-148) | 102(95-111) | 71.6 | 23(16-32) | 81(64-98) | 58(49-77) | 59 | small decrease in proportion of viable cells | 190(176-210) | marked decrease | ~150 | total number of cells ([1]; DU-145, 100 nM): significant decrease in total number of cells; expression of VEGF (immunostaining) ([5]; Animals I, 3/4 samples): very weak; programmed cell death compared to control (TUNEL) [7]: no sign of increased programmed cell death; cell proliferation [8]: marked inhibition of cell proliferation; mean S-phase ([9]; treated Dunning AT-1 samples, untreated 25.5%): 45.3%; Proportion of cells in G1 ([9]; treated tumours, control tumours 59%): 35%; tumour appearance (morphology) [10]: devitalized tumour tissue in circumscribed areas
2 | C[C@]12CC[C@H]3[C@@H](CC=C4C[C@@H](O)CC[C@@]43C)[C@@H]1CC[C@@H]2O [Compound 17β-AED, reference compound] | 72.1 | 35(31-42) | 125(109-149) | 90(78-107) | 73.7 | 17(16-18) | 66(63-71) | 49(46-53) | 29 | small decrease in proportion of viable cells | 47(40-53) | did not reduce | ~200 | staining for VEGF ([5]; Animals II): strong staining for VEGF; antitumoural effect / tumour growth ([6]; original experiment (Animals I)): growth-stimulatory effect
